According to patent publication US6924301B1, “Composition for treating or preventing arrhythmia” (Shionogi & Co., Ltd., priority 1999, dated 2005):
Blank lines part the entries; values can stand above or below the compound they belong to.

Assays:
[1] = target: T1, cPLA2 (Homo sapiens, UniProt P47712); experiment: cPLA2 inhibitory activity; format: biochemical; conditions: for IC60: 0.25 h, Table 10, same assay
T1 sequence (P47712 1-749): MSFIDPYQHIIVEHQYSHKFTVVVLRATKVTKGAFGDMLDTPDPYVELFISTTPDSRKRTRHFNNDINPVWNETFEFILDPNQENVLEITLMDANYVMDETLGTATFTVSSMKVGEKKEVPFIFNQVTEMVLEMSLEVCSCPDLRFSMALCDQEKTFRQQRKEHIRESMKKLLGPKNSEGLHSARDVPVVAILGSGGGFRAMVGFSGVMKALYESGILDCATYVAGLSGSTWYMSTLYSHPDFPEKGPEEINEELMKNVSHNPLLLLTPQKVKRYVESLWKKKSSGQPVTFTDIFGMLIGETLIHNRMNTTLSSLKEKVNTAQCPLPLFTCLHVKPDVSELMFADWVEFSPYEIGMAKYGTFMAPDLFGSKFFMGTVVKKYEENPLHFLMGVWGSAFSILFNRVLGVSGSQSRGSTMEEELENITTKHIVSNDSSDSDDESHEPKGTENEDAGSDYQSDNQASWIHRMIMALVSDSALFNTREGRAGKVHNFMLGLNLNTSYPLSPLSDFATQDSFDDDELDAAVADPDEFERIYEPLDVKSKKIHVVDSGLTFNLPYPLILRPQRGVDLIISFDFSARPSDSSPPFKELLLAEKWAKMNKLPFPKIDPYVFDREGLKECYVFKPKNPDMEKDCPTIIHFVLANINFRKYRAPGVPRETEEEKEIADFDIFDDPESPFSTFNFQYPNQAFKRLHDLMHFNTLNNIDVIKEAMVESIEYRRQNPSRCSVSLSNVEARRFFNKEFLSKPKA
Procedure: The compounds of the present invention were tested for the cPLA2 inhibitory activity according to the method disclosed in […]. Roberts, […], and J. E. Putnam, J. Biol. Chem., 1991, 266, 5268-5272 as outlined below. […] The reaction mixture includes 50 mM HEPES buffer (pH 7.5), 1 mM calcium chloride, 150 mM sodium chloride, 0.1 mg/ml bovine serum albumin, and 1.7 mM dithiothreitol. To the reaction mixture was added the compound of the present invention and the substrate solution. The reaction was allowed to start by adding an enzyme and continued for 15 min at 37° C. The fatty acids released by the reaction were extracted by the method described in V. P. Dole, and H. Meinertz, J. Biol. Chem., 1960, 235, 2595-2599 and its radiation activity was measured on a liquid scintillation counter. Control was obtained by conducting the experiment in the same manner except that a compound of the present invention was not added.

[2] = system: Wistar male rats; experiment: Arrhythmia induced by ischemia-reperfusion (coronary ligation 3 min, 10 min reperfusion) in anesthetized rats; format: in vivo, rat; conditions: for ventricular fibrillation / ventricular tachycardia: total duration during 10 min reperfusion, mean±S.D.; for effect on ventricular tachycardia induced by ischemia-reperfusion: summary in words of Tables 11 and 12, vs vehicle
Procedure: The utility of the present invention for treating or preventing arrhythmia was confirmed in a manner similar to that described in Circulation Research 56: 545-548, 1984.
Wistar male rats are used as experimental animals. Anesthesia of animal is induced by administration of 30 mg/kg to 60 mg/kg, preferably 40 mg/kg of pentobarbital sodium (preferably intraperitoneal injection). A catheter for the administration of drugs is placed in the jugular vein. Electrocardiogram (ECG) is recorded from lead II during cardiac ischemia and reperfusion. A thoracotomy is performed under artificial ventilation. Left coronary artery is ligated with silicon tube for 3 to 5 min, preferably 3 min. Reperfusion is performed by cutting snare. Total duration of ventricular tachycardia and ventricular fibrillation during 5 to 30 min, preferably 10 min reperfusion are evaluated. Test compounds are dissolved in solvent containing 10% DMSO, 10% ethanol, 30% polyethylene glycol and 50% distilled water and sodium hydrocarbonate is added to the solution to adjust final concentration to 0 to 1%, preferably 0.5%. Drugs are administrated intravenously in bolus at 15 to 60 min, preferably 30 min before reperfusion followed by 30 to 40 min, preferably 40 min infusion.
Wistar male rats (weight 250-350 g) were used. The compound (C-4) (the compound M-17 described in WO98/33797) and the compound (B-1) shown below were dissolved in solvent containing DMSO:ethanol:polyethylene glycol 300:1% aqueous sodium hydrogen carbonate solution=10:10:30:50 (volume ratio). Anesthesia was induced with intraperitoneal injection of 40 mg/kg of pentobarbital sodium. A catheter for the administration of drugs was placed in the jugular vein. Electrocardiogram (ECG) was recorded from lead II during cardiac ischemia and 10 min reperfusion. Drugs were administrated intravenously in bolus at 30 min before reperfusion followed by 40 min infusion. Solvent containing DMSO:ethanol:polyethylene glycol 300:1% aqueous sodium hydrogen carbonate solution=10:10:30:50 (volume ratio) was administrated as vehicle in a administration experiment. A thoracotomy was performed under artificial ventilation. Left coronary artery was ligated with silicon tube for 3 min. Reperfusion was performed by cutting snare. Total duration of ventricular tachycardia (VT) and ventricular fibrillation (VF) during 10 min reperfusion were evaluated.
Data are expressed as mean±S.D. Statistical analysis was performed with Welch's t-test. A value of P<0.05 was considered significant. Compound (C-4) [drawing 73]

[3] = Bolus (i.v.) + Infusion (i.v.) 0.001 mg/kg + 0.001 mg/kg/hr
[4] = Bolus (i.v.) + Infusion (i.v.) 0.01 mg/kg + 0.01 mg/kg/hr
[5] = Bolus (i.v.) + Infusion (i.v.) 0.1 mg/kg + 0.1 mg/kg/hr

IC50 ([1]; 1-palmitoyl-2-[14C]-arachidonoyl-sn-glycero-3-phosphocholine liposomes, 15 min at 37° C.): 3.7 nM
melting point: 158 to 160 °C
SMILES: O=C1NC(=O)/C(=C/c2ccc(C(=O)NC[C@@H]3C[C@@H](SC(c4ccccc4)(c4ccccc4)c4ccccc4)CN3C(=O)c3ccccc3C(=O)c3ccc(F)cc3F)cc2)S1 [Compound B-1]
ventricular fibrillation [2, 3]: 44.5 ± 133.3 s
ventricular tachycardia [2, 3]: 54.8 ± 100.9 s
ventricular fibrillation [2, 4]: 56.5 ± 169.5 s
ventricular tachycardia [2, 4]: 31.1 ± 62.3 s
ventricular fibrillation [2, 5]: 0.0 ± 0.0 s
ventricular tachycardia [2, 5]: 0.4 ± 0.9 s
effect on ventricular tachycardia induced by ischemia-reperfusion [2]: significantly reduced

IC60 [1]: 0.36 nM
SMILES: O=C(C=Cc1ccc(C=C2SC(=O)NC2=O)cc1)NCC1CC(SC(c2ccccc2)(c2ccccc2)c2cccc(F)c2)CN1C(=O)c1ccccc1C(=O)c1ccc(F)cc1F (stereo not drawn) [Compound B-24]

IC60 [1]: 0.43 nM
SMILES: O=C(C=Cc1ccc(C=C2SC(=O)NC2=O)cc1)NCC1CC(SC(c2ccccc2)(c2ccccc2)c2ccc(F)cc2)CN1C(=O)c1ccccc1C(=O)c1ccc(F)cc1F (stereo not drawn) [Compound B-25]

IC60 [1]: 24 nM
SMILES: O=C1NC(=O)/C(=C/c2ccc(C(=O)NC[C@@H]3C[C@@H](OCc4ccccc4-c4ccccc4)CN3C(=O)c3ccccc3C(=O)c3ccc(F)cc3F)s2)S1 [Compound C-1]

IC60 [1]: 3.8 nM
SMILES: O=C(/C=C/c1ccc(/C=C2\SC(=O)NC2=O)cc1)NC[C@@H]1C[C@@H](Oc2ccccc2C(c2ccccc2)c2ccccc2)CN1C(=O)c1ccccc1C(=O)c1ccc(F)cc1F [Compound C-2]

IC60 [1]: 5.4 nM
SMILES: O=C1NC(=O)/C(=C/c2ccc(/C=C/CNC(=O)[C@@H]3C[C@@H](SC(c4ccccc4)(c4ccccc4)c4ccccc4)CN3C(=O)c3ccccc3C(=O)c3ccc(F)cc3F)cc2)S1 [Compound C-3]

SMILES: CC(C)CN(C(c1ccccc1)c1ccccc1)[C@@H]1C[C@@H](CNC(=O)c2ccc(/C=C3\SC(=O)NC3=O)cc2)N(C(=O)c2ccccc2C(=O)c2ccc(F)cc2F)C1 [Compound C-4]
ventricular fibrillation [2, 3]: 15.1 ± 41.2 s
ventricular tachycardia [2, 3]: 28.7 ± 50.3 s
ventricular fibrillation [2, 4]: 1.6 ± 2.9 s
ventricular tachycardia [2, 4]: 7.6 ± 9.4 s
ventricular fibrillation [2, 5]: 0.2 ± 0.4 s
ventricular tachycardia [2, 5]: 5.1 ± 9.3 s
effect on ventricular tachycardia induced by ischemia-reperfusion [2]: significantly reduced
